According to patent US20180000817A1, “TREATMENT OF HUTCHINSON-GILFORD PROGERIA SYNDROME AND DISEASES RELATED TO VASCULAR AGEING” (BIOCANT - ASSOCIAÇÃO DE TRANSFERÊNCIA DE TECNOLOGIA, priority 2015, published 2018):

How the values were obtained:
HGPS-iPSC SMCs [1] = test: Cell detachment under arterial flow in microfluidic system (loss of function studies); assay type: cell-based, human; conditions: for HGPS-iPSC SMC detachment: both clones, arterial flow 20 dyne/cm^2, up to 12 days, MMP13 inhibitor 8 nM, BB-94 20 nM
Protocol: After 4 h, a confluent cell layer was formed, which was then perfused with SmGM-2 medium at physiological flow rate (20 dyne/cm^2). Unless specified, all tests were performed at day 0 and after 4 days on flow culture conditions. Cell number and cell clumps were determined on slides stained with DAPI (20×) and normalized by image area (0.3524 mm^2). Cell clumps areas were evaluated by Image J software.
In case of calcification inhibition studies, cells were treated with SmGM-2 medium containing sodium pyrophosphate (0.9 mM, Sigma), and in case of farnesyltrasferase inhibitor studies, cells were treated with SmGM-2 medium containing Tipifarnib (1 μM) or Lonafarnib (20 μM, Absouce Diagnostics). In MMP, calcification and farnesyltransferase inhibition studies, cells were perfused with medium containing the drug at a flow rate of 20 dyne/cm^2. Medium was changed every 7 days. Cell number and viability (Presto Blue assay) was monitored overtime. In case of MMP-13 inhibition studies, MMP activity was assessed at day 4, and the percentage of progerin positive cells and the expression of phosphatase alkaline were evaluated at day 7.
The complexation of siRNAs with lipofectamine was allowed to proceed for 40 min at room temperature. […] The culture media was changed after 72 h.

HOZ mSMCs = test: Detachment of progeria mouse SMCs under flow shear stress; assay type: cell-based; conditions: flow conditions, media supplemented with inhibitor
Description: Mice. Male^LmnaG609G/G609G, and wild-type were used (Osorio F G, Navarro C L, Cadinanos J, Lopez-Mejia I C, Quiros P M, Bartoli C, Rivera J, Tazi J, Guzman G, Varela I, Depetris D, de Carlos F, Cobo J, Andres V, De Sandre-Giovannoli A, Freije J M, Levy N, Lopez-Otin C. Splicing-directed therapy in a new mouse model of human accelerated aging. Science translational medicine. 2011;3:106ra107). Animal studies were approved by the local <<comité d'éthique pour l'expérimentation animale>> (Marseille Animal Care Commitee, Protocol n° 96-21122012) and conformed to the Directive 2010/63/EU of the European parliament regarding the protection of animals used for experimental and other scientific purposes. Mouse vSMCs (mSMC) were prepared from thoracic aortas of 6 or 18 week-old mice. Briefly, after fat tissue removal around aortic region, aorta was dissected from its origin to the proximity of the diaphragm. Aortas from two mice were put into HBSS 1×, on ice then rinse once in HBSS. Aorta were digested 10 minutes at 37° C. in enzyme solution freshly prepared the day of isolation (Collagenase 1 mg/ml, Soybean Trypsin inhibitor 1 mg/ml, elastase 0.744 units/ml—Worthington biochemical—, penicillin/streptomycin 1%, HBSS 1×). […] The loss of mSMC during time was assessed by the percentage of occupied area.
We also analyzed the effect of MMP13 and BB94 inhibition in HOZ mSMCs. […]

LmnaG609G/G609G mice = test: In vivo treatment of progeria mice with BB-94; parameters: species or system mouse
Protocol: In vivo studies. 16 Lmna^G609G/G609G mice (male and female) were used. […] IP injections were used to administrate 30 mg/Kg/day of BB-94 in 3 mg/ml in PBS containing 0.01% Tween 80. The treatment was applied 5 times per week during 6 weeks (from week 5 to week 10). […] At the end of week 10 the mice were sacrificed and the selected parameters were evaluated.
Gene Expression Profiling using Fluidigm. Small parts of mice aortas were frozen to be analyzed. These parts were lysated and homogenized using a MagNA instrument and MagNA Lyser Green Beads (with 5 mm (diameter) stainless steel beads). Total RNA were then isolated and quantified. DELTAgene assays (FlexSix—Fluidigm) were designed for […] transcripts. The pre-amplification process was performed for 14 cycles in order to obtain sensitivity down to a single cDNA molecule. The oligos were synthesized by Sigma and dissolved at a concentration of 100 μM in water. For each assay a Primer Pair Mix was prepared containing 50 μM Forward Primer and 50 μM Reverse Primer. In order to prepare 10× Pre-amplification Primer Mix (500 nM each primer), 10 μL of each of the 96 Primer Pair Mixes (50 μM each primer) was mixed with […] buffer consisting of 10 mM Tris-HCl, pH 8.0; 0.1 mM EDTA; 0.25% Tween-20. In order to prepare 10× Assay (5 μM each primer) each Primer Pair Mix was diluted by mixing 10 μL Primer Pair Mix (50 μM each primer) with 90 μL buffer consisting of 10 mM Tris-HCl, pH 8.0; 0.1 mM EDTA; 0.25% Tween-20. A pre-mix containing cDNA and primers was done and treatment with exonuclease I was performed to remove non-hybridized primers. The Fluidigm® FLEXsix™ Gene expression IFC was used with EvaGreen chemistry. After a prime of the chip, a 10× assay mix and sample mix were prepared and pipetted into the inlets. The chip was loaded and data was collected using the BioMark HD™. Data was analyzed using Fluidigm® Real Time PCR Analysis v2.1 software.
So far no therapy has been developed to target specifically SMC loss. Most of the compounds identified so far in pre-clinical tests to treat progeria have been focused in the reduction of progerin quantities, by either reducing its production or increasing its degradation, in the reduction of progerin toxicity by targeting its aberrant prenylation, or identifying compounds capable of restoring pathological phenotypes downstream of progerin accumulation. Therefore we asked whether the inhibition of MMP13 in LmnaG609G/G609G mice could retard SMC loss. […] LmnaG609G/G609G mice (n=8 for treatment group and control group; age: 5 weeks) were IP injected 5 times a week (30 mg/Kg/day; 3 mg/mL in PBS). […] At this time point we evaluated SMC loss in the aortic arch.

MMP-9 = MMP-9 (Homo sapiens, UniProt P14780); conditions: cited from earlier work
MMP-7 = molecular target: T1, MMP-7 (Homo sapiens, UniProt P09237); conditions: cited from earlier work
T1 sequence (P09237 95-267): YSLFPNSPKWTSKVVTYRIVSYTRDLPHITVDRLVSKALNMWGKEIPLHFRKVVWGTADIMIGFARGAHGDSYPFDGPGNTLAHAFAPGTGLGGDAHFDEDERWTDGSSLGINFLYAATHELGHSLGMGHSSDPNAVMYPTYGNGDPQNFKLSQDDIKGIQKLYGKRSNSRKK

HGPS-iPSC SMCs [2] = test: Response to farnesyltransferase inhibitor: prelamin A and nuclear morphology by immunofluorescence; assay type: cell-based, human; conditions: one dose 1 μM, after 48 h
Protocol: To evaluate whether HGPS-iPSC SMCs could respond to farnesyltransferase inhibitors, as shown for other progeria cell models, cells were treated with one dose of Tipifarnib (1 μM) and after 48 h cells were characterized for the expression of prelamin A. As expected, HGPS-iPSC SMCs accumulate nuclear prelamin A (approximately 95% of the cells), as shown by immunofluorescence (FIG. 12).
Immunofluorescence analysis—In an embodiment, cells were washed with PBS, fixed with 4% paraformaldehyde (Electron Microscopy Sciences) for 15 min at room temperature and washed again with PBS. […] Binding of primary antibodies to specific cells was detected with anti-mouse IgG Cy3 (Sigma) or anti-rabbit IgG Cy3 (JacksonImmunoResearch). Cell nuclei were stained with 4′, 6′-diamidino-2-phenylindole (DAPI) (Sigma) and the slides examined with a regular (Zeiss) or high-content fluorescence microscope (IN Cell 2200, GE Healthcare). Image) software was used to quantify the overall intensity of each image, which was then normalized for cell number.

MMP-9, sequence (P14780 94-707, species assumed): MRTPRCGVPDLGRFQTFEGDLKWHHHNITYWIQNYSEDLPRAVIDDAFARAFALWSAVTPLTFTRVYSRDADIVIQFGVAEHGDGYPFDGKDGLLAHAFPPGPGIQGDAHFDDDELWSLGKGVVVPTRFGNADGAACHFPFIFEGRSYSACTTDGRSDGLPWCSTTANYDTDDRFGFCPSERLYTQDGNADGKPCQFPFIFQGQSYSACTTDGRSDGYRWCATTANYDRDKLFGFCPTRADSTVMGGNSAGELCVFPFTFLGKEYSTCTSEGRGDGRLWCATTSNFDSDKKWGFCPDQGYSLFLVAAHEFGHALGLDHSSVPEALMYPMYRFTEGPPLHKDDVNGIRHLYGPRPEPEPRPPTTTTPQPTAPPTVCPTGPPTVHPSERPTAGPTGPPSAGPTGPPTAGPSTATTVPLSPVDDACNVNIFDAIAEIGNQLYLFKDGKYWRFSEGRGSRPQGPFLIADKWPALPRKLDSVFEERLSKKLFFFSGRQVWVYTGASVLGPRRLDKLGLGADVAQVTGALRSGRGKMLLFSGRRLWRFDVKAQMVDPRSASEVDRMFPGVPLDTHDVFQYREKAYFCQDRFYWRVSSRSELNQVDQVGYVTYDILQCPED

## CNC(=O)[C@H](Cc1ccccc1)NC(=O)[C@H](CC(C)C)[C@H](CSc1cccs1)C(=O)NO [Batimastat, (2R,3S)-N4-Hydroxy-2-isobutyl-N1-[(2S)-1-(methylamino)-1-oxo-3-phenyl-2-propanyl]-3-[(2-thienylsulfanyl)methyl]succinamide]
HGPS-iPSC SMCs [1]
  HGPS-iPSC SMC detachment: decreased significantly the detachment
HOZ mSMCs
  detachment of HOZ mSMCs: significantly delayed
LmnaG609G/G609G mice; 3 mg/mL in PBS, IP injection
  solubility of the compound: low solubility
LmnaG609G/G609G mice; IP 30 mg/Kg/day, 5 times per week, 6 weeks, cell nuclei counting and qRT-PCR, versus untreated animals
  number of SMCs in aortic arch: higher number of SMCs than untreated animals
LmnaG609G/G609G mice; IP 30 mg/Kg/day, 6 weeks
  progerin in cells isolated from aortic arch: No evidence of decrease of progerin
LmnaG609G/G609G mice; IP 30 mg/Kg/day, treatment reduced from 10 to 6 weeks
  intra-abdominal accumulation (precipitate): intra-abdominal massive accumulation
MMP-9
  IC50: ≤ 20 nM
MMP-7
  IC50: ≤ 20 nM

## NC(=O)N1CCC(CC(=O)N2CCC([C@H]3c4ncc(Br)cc4CCc4cc(Cl)cc(Br)c43)CC2)CC1 [Lonafarnib]
HGPS-iPSC SMCs [1]; HGPS-iPSC SMC clone 1, arterial flow, Tipifarnib 1 μM, Lonafarnib 20 μM
  cellular detachment: able to decrease cellular detachment

## Cc1cc(CNC(=O)c2cc(C(=O)NCc3ccc(F)c(C)c3)ncn2)ccc1F [MMP-13 inhibitor, pyrimidine-4,6-dicarboxylic acid, bis-(4-fluoro-3-methyl-benzylamide)]
HGPS-iPSC SMCs [1]
  HGPS-iPSC SMC detachment: decreased significantly the detachment
HOZ mSMCs
  detachment of HOZ mSMCs: significantly delayed

## Cn1cncc1[C@@](N)(c1ccc(Cl)cc1)c1ccc2c(c1)c(-c1cccc(Cl)c1)cc(=O)n2C [Tipifarnib]
HGPS-iPSC SMCs [2]
  cells accumulating nuclear prelamin A: approximately 95 % of the cells

## O=P([O-])([O-])OP(=O)([O-])[O-].[Na+].[Na+].[Na+].[Na+] [sodium pyrophosphate]
HGPS-iPSC SMCs [1]; calcification inhibition, sodium pyrophosphate 0.9 mM, arterial flow
  SMC detachment: significant decreased in SMC detachment
